The target in one data set is T1, human GIVA cPLA2 (Homo sapiens, UniProt P47712).
T1 sequence (P47712 1-749): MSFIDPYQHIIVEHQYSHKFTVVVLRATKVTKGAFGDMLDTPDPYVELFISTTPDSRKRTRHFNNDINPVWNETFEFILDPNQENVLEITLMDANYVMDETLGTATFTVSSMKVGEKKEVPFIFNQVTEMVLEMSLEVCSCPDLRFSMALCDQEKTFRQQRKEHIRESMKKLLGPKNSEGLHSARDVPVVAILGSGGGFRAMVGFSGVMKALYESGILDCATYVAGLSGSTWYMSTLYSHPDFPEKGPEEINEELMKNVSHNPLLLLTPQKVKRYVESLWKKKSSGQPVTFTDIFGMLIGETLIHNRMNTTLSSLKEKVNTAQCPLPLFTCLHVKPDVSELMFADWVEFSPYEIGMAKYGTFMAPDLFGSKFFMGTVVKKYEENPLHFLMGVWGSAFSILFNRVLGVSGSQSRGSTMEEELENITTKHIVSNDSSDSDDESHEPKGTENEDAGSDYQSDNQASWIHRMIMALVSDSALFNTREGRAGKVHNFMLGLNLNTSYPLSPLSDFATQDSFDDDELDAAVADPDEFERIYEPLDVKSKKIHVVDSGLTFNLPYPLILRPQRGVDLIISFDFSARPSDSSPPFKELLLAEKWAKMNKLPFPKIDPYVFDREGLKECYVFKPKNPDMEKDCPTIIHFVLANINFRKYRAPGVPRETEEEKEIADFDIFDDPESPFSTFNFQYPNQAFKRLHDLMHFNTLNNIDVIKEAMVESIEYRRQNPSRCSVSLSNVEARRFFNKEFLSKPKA
As to the kind of experiment: lipidomics-based mixed micelle assay, GIVA cPLA2. The format is biochemical. The settings on record: for GIVA cPLA2 XI(50): separated trans/cis diastereomers, lipidomics-based assay.

For data set [1], the target named is T2, recombinant human GVIA iPLA2 (Homo sapiens, UniProt O60733).
T2 sequence (O60733 1-806): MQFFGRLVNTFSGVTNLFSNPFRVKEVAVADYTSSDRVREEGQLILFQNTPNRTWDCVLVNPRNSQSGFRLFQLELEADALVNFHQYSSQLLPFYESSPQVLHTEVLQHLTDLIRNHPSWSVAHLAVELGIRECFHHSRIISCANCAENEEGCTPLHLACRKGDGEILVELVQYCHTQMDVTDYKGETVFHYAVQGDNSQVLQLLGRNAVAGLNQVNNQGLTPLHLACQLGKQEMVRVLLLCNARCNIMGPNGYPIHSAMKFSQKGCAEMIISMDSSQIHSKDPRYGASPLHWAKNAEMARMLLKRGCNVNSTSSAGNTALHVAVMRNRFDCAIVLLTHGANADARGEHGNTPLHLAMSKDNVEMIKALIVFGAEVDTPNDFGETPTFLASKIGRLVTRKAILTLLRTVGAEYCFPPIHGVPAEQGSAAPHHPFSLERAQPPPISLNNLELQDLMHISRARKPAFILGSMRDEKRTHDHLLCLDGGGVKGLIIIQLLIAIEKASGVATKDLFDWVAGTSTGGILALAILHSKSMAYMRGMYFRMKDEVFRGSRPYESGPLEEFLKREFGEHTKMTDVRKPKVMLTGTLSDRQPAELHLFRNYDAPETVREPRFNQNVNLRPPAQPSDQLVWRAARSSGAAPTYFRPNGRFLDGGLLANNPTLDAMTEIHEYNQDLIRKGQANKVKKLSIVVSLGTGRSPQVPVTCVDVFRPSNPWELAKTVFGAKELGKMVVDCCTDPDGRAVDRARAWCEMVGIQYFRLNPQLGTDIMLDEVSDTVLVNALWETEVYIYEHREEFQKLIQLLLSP
The data set is described as follows: lipidomics-based mixed micelle assay, GVIA iPLA2. The format is biochemical.

Another data set concerns INS-1 cells. The format is cell-based.
For a further data set, the system named is β-cell. The settings on record: cited from earlier work.
Data set [2] concerns the target T2, recombinant human GVIA iPLA2. The settings on record: cited from earlier work; for GVIA iPLA2 XI(50): radioactivity-based assay.

Where two headings read alike, the source gives them in different places. Some results are limits rather than exact numbers.

The term IC50 denotes the midpoint of a concentration-inhibition curve.

Turning to `CCC[C@@H]1OC(=O)[C@@H]1CCCc1ccc(OC)cc1` (racemic) [cis-9f, cis-(±)-3-(3-(4-Methoxyphenyl)propyl)-4-propyloxetan-2-one], at human GIVA cPLA2, half-maximal inhibition (IC50) required 20 nM and the “GIVA cPLA2 XI(50)” value was found to be 0.00004 mole fraction. On human GIVA cPLA2 (GIVA cPLA2 over GVIA iPLA2), the “times more potent for GIVA cPLA2 than for GVIA iPLA2” value was ~1000 times. Further, in data set [1], the IC50 is 20000 nM.

Turning to `CCC[C@@H]1OC(=O)[C@@H]1CCCCc1ccc2ccccc2c1` (racemic) [cis-9j, cis-(±)-3-(4-(Naphthalen-2-yl)butyl)-4-propyloxetan-2-one], the 50% inhibitory concentration (IC50) in data set [1] was 1000 nM.

Regarding `CCC[C@H]1OC(=O)[C@@H]1CCCCc1ccccc1` (racemic) [trans-9k, trans-(±)-3-(4-Phenylbutyl)-4-propyloxetan-2-one], on human GIVA cPLA2, the “GIVA cPLA2 XI(50)” value was 0.042 mole fraction. Besides, the “inhibition (decrease) of cytokine-induced β-cell apoptosis” value in the data set with INS-1 cells (0.10 μM, co-treatment with IL-1β + IFNγ, 16 h) is “minimal and non-significant effect”. For the same compound, in the data set with INS-1 cells (0.10 or 1.0 μM, no cytokines), the “cytotoxicity on continuous exposure, compound alone” value is listed as “not cytotoxic”. Also, in data set [1] (GVIA iPLA2 over GIVA cPLA2), the “times more active against GVIA iPLA2 than GIVA cPLA2 (selectivity)” value was 22,000 times. The “potency on GVIA iPLA2 relative to FKGK18” value in data set [1] (compared with fluoroketone FKGK18) is recorded as “a hundred times more potent”.

Turning to `O=C(CCCCc1ccc2ccccc2c1)C(F)(F)F` [compound 3], the “inhibition of β-cell apoptosis” value with β-cell is given as “able to inhibit β-cell apoptosis”. In addition, in data set [2], the “times more potent for GVIA iPLA2 than for GIVA cPLA2” value is on record as 195 times and the “times more potent for GVIA iPLA2 than for GV sPLA2” value was > 455 times.

As to `O=C(CCCCc1ccccc1)C(F)(F)C(F)(F)F` [2a], the “GVIA iPLA2 XI(50)” value in data set [2] (listed as FKGK11) is 0.0014 mole fraction.

For `COc1ccc(CCSCC(=O)c2noc(C(C)(C)C)n2)cc1` [compound 4], the “GVIA iPLA2 XI(50)” value in data set [2] was 0.0057 mole fraction.

Take `CCC[C@H]1OC(=O)[C@@H]1CCCc1ccc(OC)cc1` (racemic) [trans-9f, trans-(±)-3-(3-(4-Methoxyphenyl)propyl)-4-propyloxetan-2-one]: the IC50 in data set [1] was 95 nM.

As for `CCC[C@H]1OC(=O)[C@@H]1CCCc1ccccc1` (racemic) [trans-9d, trans-(±)-3-(3-Phenylpropyl)-4-propyloxetan-2-one], the IC50 in data set [1] stood at 95 nM.

Take `CCC[C@@H]1OC(=O)[C@@H]1CCCc1ccccc1` (racemic) [cis-9d, cis-(±)-3-(3-Phenylpropyl)-4-propyloxetan-2-one]: at human GIVA cPLA2, the IC50 came out at 950 nM and the “GIVA cPLA2 XI(50)” value was determined as 0.0019 mole fraction.

In the case of `COc1ccc(CCCCC(=O)C(F)(F)C(F)(F)F)cc1` [2b], the “GVIA iPLA2 XI(50)” value in data set [2] (listed as GK187) is 0.0001 mole fraction.

In the case of `CCC[C@H]1OC(=O)[C@@H]1CCCc1ccc2ccccc2c1` (racemic) [trans-9e, trans-(±)-3-(3-(Naphthalen-2-yl)propyl)-4-propyloxetan-2-one], the IC50 in data set [1] came to 150 nM.

Source of the values: PMC6767909 (Journal of medicinal chemistry, 2019).
